Assay results from US11370897B2, “Curable composition comprising UV stabilizer” (Momentive Performance Materials Inc., priority 2019, dated 2022).
Like-named read-outs stand apart in the source and are kept apart here.

Test: Solubility tests of resorcinol products in alcoholic solvents
Format: physicochemical
Conditions: organic solvent or mixture, thermodynamic from solid, 20° C., Table 11, by product ratio DBMR/BTMR/DTMR
Protocol: To determine the solubility of resorcinol products, the following procedure was used:
0.50 g of pre-dried product (45 min @75° C. in oven) was combined with 5.00 ml of solvent (4.03 g of 2-butanol or 4.60 g of 1-methoxy-2-propanol). The mixture was handled in an ultrasonic bath for 1 min and stored afterwards under constant climate (20° C.) for 24 h.
The overlying solution was transfused carefully with a pipette. The solid content of this solution was measured thermogravimetrically with a halogen moisture analyzer (Mettler Toledo). This test procedure was repeated three times.

[1] = 1-methoxy-2-propanol, read-out: Solubility in 1-Methoxy-2-propanol
[2] = 2-butanol, read-out: Solubility in 2-butanol

| solubility at 24 h [1] [µg/mL] | solubility at 24 h [2] [µg/mL] | Compound |
| --- | --- | --- |
| 4000 | < 1000 | Cc1c(O)c(C(=O)c2ccccc2)cc(C(=O)c2ccccc2)c1O [DBMR, dibenzoylacyl-2-methyl resorcinol] |
| 15000 | 1000 | Cc1cccc(C(=O)c2cc(C(=O)c3cccc(C)c3)c(O)c(C)c2O)c1 [DTMR, ditoluoylacyl-2-methyl resorcinol] |
